Data set [1] concerns the target T1, recombinant human liver BVR (Homo sapiens, UniProt P53004).
T1 construct: purchased Sigma-Aldrich (St. Louis, Mo.) CS1100; host or cells: Escherichia coli
T1 sequence (P53004 3-296): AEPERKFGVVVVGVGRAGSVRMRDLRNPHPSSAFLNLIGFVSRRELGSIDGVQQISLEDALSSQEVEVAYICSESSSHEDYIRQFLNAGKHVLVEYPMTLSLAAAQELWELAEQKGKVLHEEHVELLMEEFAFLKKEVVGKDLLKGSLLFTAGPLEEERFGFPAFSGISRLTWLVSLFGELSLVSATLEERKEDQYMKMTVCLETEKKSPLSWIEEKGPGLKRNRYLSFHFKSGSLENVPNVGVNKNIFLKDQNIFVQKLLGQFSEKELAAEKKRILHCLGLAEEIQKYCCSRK
Description: BVR enzyme assay (Biliverdin Reduction Kit). The format is biochemical. The settings on record: 10-fold dilution of 100 μg mL^−1, enzyme and NADPH, spectrophotometric 300-800 nm, up to 360 minutes. The procedure: The Sigma-Aldrich (St. Louis, Mo.) Biliverdin Reduction Kit (catalog #CS1100) and method was used to determine biliverdin reductase (“BVR”) activities with MBV, BV IXα, or phycocyanobilin as substrates. The kit-supplied enzyme was human liver BVR expressed in a recombinant Escherichia coli strain. Before use, MBV, BV IXα, or phycocyanobilin, each at 100 μg mL^−1 in methanol, were diluted 10-fold in the kit-supplied assay buffer, mixed with enzyme and NADPH, and conversion to mesobilirubin IXα, bilirubin IXα, or phycocyanobilirubin was measured spectrophotometrically between 300 and 800 nm for up to 360 minutes.

In data set [2] the test system is pancreata / islet cells of donor rats. Description: Islet cell yields after treatment of donor pancreata. The conditions noted are these: for Islet yield: P<0.05 vs control; for Islet yield at 100 μM relative to 10 μM: 100 μM through the pancreatic duct. Format: in vivo, rat (Lewis). As to the method:
MBV and BV IXα (obtained from Frontier Scientific, Inc., Logan Utah) (both at 1, 10, or 100 μM) were administered to IVC-dissected animals through the pancreatic duct at 37° C. Control animals received no treatment. Pancreata were removed from donor rats (Lewis, BW>300 g), incubated with University of Wisconsin solution and preserved using the two-layer method. See Ito et al., Improvement of canine islet yield by donor pancreas infusion with a p38MAPK inhibitor, Transplantation 86(2): 321-329 (2008). After 20 to 22 hours, islet cells were isolated using the 2-step digestion method after distention with collagenase and then purified by discontinuous Ficoll gradient centrifugation in a COBE 2991 cell processor. See Matsumoto et al., Improvement of pancreatic islet cell isolation for transplantation, Proc. (Bayl. Univ. Med. Cent.) 20(4): 357-362 (2007). Islet cells were counted microscopically and the numbers converted to IEQ (number of islets equivalent to 150 um in diameter.

Data set [3] relates to transplanted islet cells in recipient rats. The data set can be described thus: Treatment of donor pancreata followed by islet cell autotransplantation. The format is in vivo, rat (Lewis). As to the method: Pancreata removed from donor rats (Lewis, BW>300 g) were infused with University of Wisconsin solution containing MBV or BV IXα at 1, 10, or 100 μM through the pancreatic duct and preserved using the 2-layer method in Hank's balanced salt solution containing 5% autologous serum as described in Example 5. After 20 to 22 hours, islets were isolated and 3000 IEQ/kg were autotransplanted by infusion into the portal vein of the corresponding rat.

Data set [4] has as its system HRT-18 colon cancer cells. The data set can be described thus: HRT-18 colon cancer cell proliferation in vitro. Format: cell-based. The settings on record: 1, 10 and 100 μM vs PBS control; example in present tense. As to the method: (§1) HRT-18 cells are seeded in 6-well plates in a concentration of 25×10^4 cells per well. After 24 hours, incubation, cells are treated with MBV IXα (1, 10, and 100 μM) or phosphate buffered saline (PBS) as a control. Cells are washed, detached with trypsin and resolved in 1 mL of growth media. 100 μL of […] are then analyzed for cell number, viability and cell size. In a xenograft colonic tumor model (see Ollinger et al., Bilirubin Inhibits Tumor Cell Growth via Activation of ERK, Cell Cycle 6:3078-3085 (2007)), 2.5×10^6 HRT 18 colon cancer cells are injected subcutaneously into the lower flank of BALB/c nude mice. At 14 days, MBV treatment is begun by injection of 1, 10 and 100 mg/kg body weight or PBS (controls) twice daily intraperitoneally and tumor diameters are measured daily using a caliper.

The subject of data set [5] is HRT 18 colon cancer cells xenograft. The data set can be described thus: Xenograft colonic tumor model. Format: in vivo, BALB/c nude mice. The conditions noted are these: 1, 10 and 100 mg/kg twice daily intraperitoneally vs PBS; example in present tense. The procedure:
as §1

The test system of another data set is db/db and obese mice. Description: Glucose tolerance in type 2 diabetes, db/db and obese mice. The conditions noted are these: example in present tense. Format: in vivo. The procedure: MBV (2, 20 and 100 mg kg^−1 daily) is orally administered to 5-week-old db/db and obese mice for 4 weeks. Control mice are given the same feed without added MBV. After 4 weeks, glucose tolerance and insulin tolerance tests are performed. See Ikeda et al., Biliverdin protects against the deterioration of glucose tolerance in db/db mice, Diabetologia 54:2183-2191 (2011). Insulin content is evaluated by immunostaining and ELISA. Oxidative stress markers (8-hydroxy-2′-deoxyguansosine and dihydroethidium staining) and expression of […] are evaluated in isolated islets.

Data set [6] deals with Rat thoracic aortic vascular smooth muscle (A7r5) cells. Description: Suppression of angiotensin II-induced inflammation in A7r5 cells (superoxide anion, NADH/NADPH oxidase). Format: cell-based. The conditions noted are these: angiotensin II-treated A7r5 cells; example in present tense. The procedure: Rat thoracic aortic vascular smooth muscle (A7r5) cells cultured in Dulbecco's modified Eagle's medium supplemented with 10% fetal calf serum and 2 mM glutamine are exposed to various concentrations of angiotensin II and MBV for various lengths of time before harvesting. The cells are scraped into balanced salt solution, washed twice by centrifugation, and finally suspended at a density of 2×10^6 cells per mL in the same solution containing 10 mM glucose and 1 mg per mL bovine serum albumin. Superoxide anion levels (of suspensions with 9×10^5 cells) are measured with a luminometer and a commercial luminogen-based detection kit (LumiMax, Agilent Technologies. Inc.).
Angiotensin II and MBV-treated cells suspended in phosphate-buffered saline (with protease inhibitors) are disrupted at ice temperature using a Dounce homogenizer. The cell extracts are fractionated into microsomal membrane and cytosol fractions by standard differential centrifugation procedures. Microsomes, containing plasma and mitochondrial membranes, are recovered as pellets after centrifugation at 29,100 g for 20 min at 4° C. NADH/NADPH oxidase activities of the microsomal fractions are measured with a luminometer and a commercial luminogen-based kit (LumiMax, Agilent Technologies. Inc.).

[7] abbreviates: 1 μM through the pancreatic duct.
Setting [8] is: 10 μM through the pancreatic duct.
[9] abbreviates: infusion of pancreata through the duct before preservation.

Take `C/C=C1/C(=C\c2[nH]c(/C=C3N=C(/C=C4/NC(=O)C(CC)=C4C)C(C)=C/3CCC(=O)O)c(CCC(=O)O)c2C)NC(=O)C1C` (stereo not shown) [phycocyanobilin, reference compound]: the “BVR activity with the compound as substrate (conversion to reduced product)” value in data set [1] is “poor and relatively inactive catalytic substrate”.
Take meso-biliverdin IXα [MBV]: the “BVR activity with the compound as substrate (conversion to reduced product)” value in data set [1] is on record as “kinetics that resembled those for BV IXα conversion to bilirubin IXα”. Besides, the “Increase of islet yield over non-treated controls” value in data set [2] (1 μM) was 1.87 fold. In addition, the Islet yield in data set [2] (setting [7]) amounted to 1599±475 IEQ/g. Moreover, in data set [2] (10 μM), the “Increase of islet yield over non-treated controls” value is listed as 1.54 fold. For the same compound, the Islet yield in data set [2] (setting [8]) is given as 1318±804 IEQ/g. Moreover, the “Islet yield at 100 μM relative to 10 μM” value in data set [2] is reported as “did not increase islet yields beyond those with 10 μM concentration”. Further, the “Islet cell yields (IEQ values) assessed by laser scanning cytometry” value in data set [3] (MBV-treated donor pancreata vs untreated control pancreata) is “higher”. The “Tumor necrosis factor α expression (real-time RT-PCR)” value in data set [3] (MBV-treated group vs controls) is listed as “significantly lower”. Besides, the “Plasma C peptide levels after glucagon challenge” value in data set [3] (animals receiving MBV-treated islets vs islets from untreated control pancreata) is “higher”. Also, in data set [3] (setting [9]), the “Adverse effect on islet function” value was “no adverse effect on islet function” and the Islet cell apoptosis result is “prevented islet cell apoptosis”. Moreover, in data set [3] (rats transplanted with MBV-treated islets vs untreated islets), the “Glycemia of recipient rats” value is “more euglycemic”. The “HRT-18 colonic cell proliferation in vitro” value in data set [4] is on record as “reduces”. In addition, the “Xenograft tumor formation in vivo” value in data set [5] is reported as “reduces”. The “Development of hyperglycemia and glucose intolerance” value with db/db and obese mice (2, 20 and 100 mg kg^−1 daily orally, 4 weeks) is given as “at least partially prevents”. Moreover, the “Levels of oxidative stress markers and NADPH oxidase activities” value in the data set with db/db and obese mice (oral feeding 4 weeks, compared to controls) is “lower and normal compared to those of controls”. Moreover, in the data set with db/db and obese mice (oral feeding 4 weeks), the “Apoptosis and Bax expression in islets from db/db mice” value is “decreases”; the “Insulin levels and Pdxl expression” value is reported as “increases”. Further, the “Angiotensin II-induced inflammatory processes (NADH/NADPH oxidase activation, superoxide anion production)” value in data set [6] was “suppresses these inflammatory processes”.
Take `C=CC1=C(C)/C(=C\c2[nH]c(/C=C3N=C(/C=C4/NC(=O)C(C)=C4C=C)C(C)=C/3CCC(=O)O)c(CCC(=O)O)c2C)NC1=O` [BV IXα, Biliverdin (“BV”) IXα, reference compound]: the “Increase of islet yield over non-treated controls” value in data set [2] (1 μM) is reported as 1.04 fold; in data set [2] (10 μM), 1.24 fold. The results for the Islet yield in data set [2] (setting [7]) and in data set [2] (setting [8]) were 1328±358 IEQ/g and 1616±451 IEQ/g, respectively. Besides, the “Islet yield at 100 μM relative to 10 μM” value in data set [2] is “did not increase islet yields beyond those with 10 μM concentration”.

Source of the values: patent US9119842B2, “Therapeutic meso-biliverdin IXα compositions and associated methods” (Utah State University, priority 2012, dated 2015).
